Data set [1] in a line: in vitro. The following applies: human, liver microsomes. On the technique in general: Microsomes from liver hold many membrane-bound enzymes, among them those of drug oxidation.
Data set [2] is described as follows: in vitro. To be noted: human.
A short description of data set [3]: in vitro. The following applies: human. The source holds these as a separate data set.
Data set [4] has as its system Caco-2. The following applies: human, caco-2, 10 µM.
Data set [5] relates to Caco-2. The following applies: human, caco-2, 10 µM. This is another data set of the same source.

The structures appear in SMILES notation.

We go through 14 molecules from ChEMBL document CHEMBL1152295, “Novel 3,3-disubstituted pyrrolidines as selective triple serotonin/norepinephrine/dopamine reuptake inhibitors” (Bioorg Med Chem Lett, 2008).

One may read the microsomal CLint as a measure of how fast metabolising enzymes remove a compound, apart from limits set by blood flow. Read a low microsomal CLint as slow turnover. The Papp B→A is how fast a substance crosses the layer from the basolateral side. By Papp A→B is commonly meant the apparent permeability from the apical to the basolateral side of a cell layer. Read a low Papp A→B as slow passage. One may read the Papp as the rate of passage across a membrane or cell layer, normalised by area and donor concentration. Read a low Papp as slow passage.

`c1ccc(CC2(c3ccc4[nH]ccc4c3)CCNC2)nc1` (stereo not drawn) showed a microsomal CLint in “in vitro [1]” (Stability) of 86 µL/min/mg. The Papp B→A at 10 µM in the data set “in vitro [2]” (Caco-2, Papp) stood at 18 ×10⁻⁶ cm/s. The Papp A→B at 10 µM in “in vitro [3]” (Caco-2, Papp) came to 3.2 ×10⁻⁶ cm/s.
As for `c1ccc(CC2(c3ccc4sccc4c3)CCNC2)cc1` (stereo not drawn), in “in vitro [1]” (Stability), the intrinsic clearance (microsomal CLint) is 198 µL/min/mg.
In turn, `CCCCC1(c2ccc3[nH]ccc3c2)CCNC1` (stereo not drawn) had a microsomal CLint in the data set “in vitro [1]” (Stability) of 38 µL/min/mg. Moreover, the apparent permeability from basolateral to apical (Papp B→A) at 10 µM in the data set “in vitro [2]” (Caco-2, Papp) was 19 ×10⁻⁶ cm/s. The molecule further displayed a Papp A→B at 10 µM in the data set “in vitro [3]” (Caco-2, Papp) of 9.4 ×10⁻⁶ cm/s.
In turn, `Clc1ccc([C@]23CNC[C@H]2C3)cc1Cl` [AMITIFADINE] registered an intrinsic clearance (microsomal CLint) in the data set “in vitro [1]” of 47 µL/min/mg. The same molecule gave a Papp B→A at 10 µM in “in vitro [2]” (Caco-2) of 2.1 ×10⁻⁶ cm/s. For the same molecule, the apparent permeability from apical to basolateral (Papp A→B) at 10 µM in “in vitro [3]” (Caco-2) worked out at 2.9 ×10⁻⁶ cm/s.
Consider `Cn1ccc2cc(C3(Cc4ccccc4)CCNC3)ccc21` (stereo not drawn), for which the microsomal CLint in the data set “in vitro [1]” (Stability) came to 106 µL/min/mg.
For the molecule `c1ccc(CC2(c3ccc4[nH]ncc4c3)CCNC2)cc1` (stereo not drawn), the intrinsic metabolic clearance (microsomal CLint) in “in vitro [1]” (Stability) is 28 µL/min/mg. In “in vitro [2]” (Caco-2, Papp), this molecule showed an apparent permeability from basolateral to apical (Papp B→A) at 10 µM of 22 ×10⁻⁶ cm/s. Besides, the Papp A→B at 10 µM in the data set “in vitro [3]” (Caco-2, Papp) was 10 ×10⁻⁶ cm/s.
On the same counts, the results for `NC(=O)c1cc2cc(C3(Cc4ccccc4)CCNC3)ccc2[nH]1` (stereo not drawn) are 1.4 µL/min/mg, 17 ×10⁻⁶ cm/s and 0.6 ×10⁻⁶ cm/s.
On the same counts, the results for `CN(C)C(=O)c1cc2cc(C3(Cc4ccccc4)CCNC3)ccc2[nH]1` (stereo not drawn) are 12.8 µL/min/mg, 24 ×10⁻⁶ cm/s and 4 ×10⁻⁶ cm/s.
In “in vitro [1]”, `CCCC1(c2ccc3[nH]ccc3c2)CCNC1` (stereo not drawn) yielded an intrinsic clearance (microsomal CLint) of 2.3 µL/min/mg. Besides, in the data set “in vitro [2]” (Caco-2), the Papp B→A at 10 µM was 24 ×10⁻⁶ cm/s. The same molecule gave a Papp A→B at 10 µM in “in vitro [3]” (Caco-2) of 16.5 ×10⁻⁶ cm/s.
For `c1ccc(CC2(c3ccc4[nH]ccc4c3)CCNC2)cc1` (stereo in doubt; (+)-16) [5-(3-BENZYLPYRROLIDIN-3-YL)-1H-INDOLE (STRUCTURAL MIX)], the microsomal CLint in the data set “in vitro [1]” (Stability) came out at 154 µL/min/mg. The Papp B→A at 10 µM in the data set “in vitro [2]” (Caco-2, Papp) worked out at 9.9 ×10⁻⁶ cm/s. The same molecule registered a Papp A→B at 10 µM in the data set “in vitro [3]” (Caco-2, Papp) of 21 ×10⁻⁶ cm/s.
As for `c1ccc(CC2(c3ccc4[nH]ccc4c3)CCNC2)cc1` (stereo in doubt; 16) [5-(3-BENZYLPYRROLIDIN-3-YL)-1H-INDOLE (STRUCTURAL MIX)], the apparent permeability coefficient (Papp) in the data set with Caco-2 [4] turned out to be 14 ×10⁻⁶ cm/s; in the data set with Caco-2 [5], 17 ×10⁻⁶ cm/s.
Consider `CCOC(=O)c1cc2cc(C3(Cc4ccccc4)CCNC3)ccc2[nH]1` (stereo not drawn), for which the microsomal CLint in “in vitro [1]” (Stability) was 47.8 µL/min/mg. The molecule also registered a Papp B→A at 10 µM in the data set “in vitro [2]” (Caco-2, Papp) of 3.4 ×10⁻⁶ cm/s. The same molecule had an apical-to-basolateral permeability (Papp A→B) at 10 µM in the data set “in vitro [3]” (Caco-2, Papp) of 3.5 ×10⁻⁶ cm/s.
On to `COc1cccc(CC2(c3ccc4[nH]ccc4c3)CCNC2)c1` (stereo not drawn), for which the intrinsic metabolic clearance (microsomal CLint) in “in vitro [1]” (Stability) is 77 µL/min/mg.
On the same count and under the same terms, under `Fc1ccc(CC2(c3ccc4[nH]ccc4c3)CCNC2)cc1` (stereo not drawn) stands 84 µL/min/mg.
